Assay results published in the NIST ThermoML archive (doi:10.1016/j.fluid.2014.09.014).

Experiment: refractive index (other wavelength) (dimensionless); xn = mol fraction of the nth substance listed
Conditions: 101 kPa, Liquid, Standard Abbe refractometry

CC(C)OC(C)C [diisopropyl ether] + CO
Conditions	refractive index
308.15 K, Wavelength=632.8 nm, x2 = 0.9527	1.32818
308.15 K, Wavelength=632.8 nm, x2 = 0.9773	1.32479
308.15 K, Wavelength=632.8 nm, x2 = 0.989	1.32358
308.15 K, Wavelength=632.8 nm, x2 = 0.9964	1.32256
308.15 K, Wavelength=644 nm, x2 = 0	1.35823
308.15 K, Wavelength=644 nm, x2 = 0.0423	1.35813
308.15 K, Wavelength=644 nm, x2 = 0.0424	1.35825
308.15 K, Wavelength=644 nm, x2 = 0.082	1.35812
308.15 K, Wavelength=644 nm, x2 = 0.0822	1.35825
308.15 K, Wavelength=644 nm, x2 = 0.1171	1.35814
308.15 K, Wavelength=644 nm, x2 = 0.1271	1.35813
308.15 K, Wavelength=644 nm, x2 = 0.1827	1.35788
308.15 K, Wavelength=644 nm, x2 = 0.2162	1.35771
308.15 K, Wavelength=644 nm, x2 = 0.251	1.35735
308.15 K, Wavelength=644 nm, x2 = 0.3298	1.35728
308.15 K, Wavelength=644 nm, x2 = 0.3577	1.35703
308.15 K, Wavelength=644 nm, x2 = 0.4497	1.35516
308.15 K, Wavelength=644 nm, x2 = 0.4525	1.35557
308.15 K, Wavelength=644 nm, x2 = 0.522	1.35341
308.15 K, Wavelength=644 nm, x2 = 0.5543	1.35268
308.15 K, Wavelength=644 nm, x2 = 0.609	1.35028
308.15 K, Wavelength=644 nm, x2 = 0.6529	1.34881
308.15 K, Wavelength=644 nm, x2 = 0.7504	1.345
308.15 K, Wavelength=644 nm, x2 = 0.804	1.34088
308.15 K, Wavelength=644 nm, x2 = 0.807	1.34066
308.15 K, Wavelength=644 nm, x2 = 0.8727	1.33698
308.15 K, Wavelength=644 nm, x2 = 0.9233	1.32908
308.15 K, Wavelength=644 nm, x2 = 0.9253	1.331
308.15 K, Wavelength=644 nm, x2 = 0.9527	1.32794
308.15 K, Wavelength=644 nm, x2 = 0.9773	1.32455
308.15 K, Wavelength=644 nm, x2 = 0.989	1.32334
308.15 K, Wavelength=644 nm, x2 = 0.9964	1.32232
308.15 K, Wavelength=706.5 nm, x2 = 0	1.35683
308.15 K, Wavelength=706.5 nm, x2 = 0.0423	1.35672
308.15 K, Wavelength=706.5 nm, x2 = 0.0424	1.35677
308.15 K, Wavelength=706.5 nm, x2 = 0.082	1.35671
308.15 K, Wavelength=706.5 nm, x2 = 0.0822	1.35685
308.15 K, Wavelength=706.5 nm, x2 = 0.1171	1.35672
308.15 K, Wavelength=706.5 nm, x2 = 0.1271	1.35672
308.15 K, Wavelength=706.5 nm, x2 = 0.1827	1.35648
308.15 K, Wavelength=706.5 nm, x2 = 0.2162	1.35631
308.15 K, Wavelength=706.5 nm, x2 = 0.251	1.35595
308.15 K, Wavelength=706.5 nm, x2 = 0.3298	1.35588
308.15 K, Wavelength=706.5 nm, x2 = 0.3577	1.35565
308.15 K, Wavelength=706.5 nm, x2 = 0.4497	1.35375
308.15 K, Wavelength=706.5 nm, x2 = 0.4525	1.35416
308.15 K, Wavelength=706.5 nm, x2 = 0.522	1.35202
308.15 K, Wavelength=706.5 nm, x2 = 0.5543	1.35129
308.15 K, Wavelength=706.5 nm, x2 = 0.609	1.34894
308.15 K, Wavelength=706.5 nm, x2 = 0.6529	1.34745
308.15 K, Wavelength=706.5 nm, x2 = 0.7504	1.34368
308.15 K, Wavelength=706.5 nm, x2 = 0.804	1.33959
308.15 K, Wavelength=706.5 nm, x2 = 0.807	1.33939
308.15 K, Wavelength=706.5 nm, x2 = 0.8727	1.33572
308.15 K, Wavelength=706.5 nm, x2 = 0.9233	1.32789
308.15 K, Wavelength=706.5 nm, x2 = 0.9253	1.32976
308.15 K, Wavelength=706.5 nm, x2 = 0.9527	1.32672
308.15 K, Wavelength=706.5 nm, x2 = 0.9773	1.32336
308.15 K, Wavelength=706.5 nm, x2 = 0.989	1.32216
308.15 K, Wavelength=706.5 nm, x2 = 0.9964	1.32114
313.15 K, Wavelength=40.47 nm, x2 = 0	1.3674
313.15 K, Wavelength=40.47 nm, x2 = 0.0423	1.36734
313.15 K, Wavelength=40.47 nm, x2 = 0.0424	1.3674
313.15 K, Wavelength=40.47 nm, x2 = 0.082	1.36731
313.15 K, Wavelength=40.47 nm, x2 = 0.0822	1.3675
313.15 K, Wavelength=40.47 nm, x2 = 0.1171	1.36734
313.15 K, Wavelength=40.47 nm, x2 = 0.1271	1.36736
313.15 K, Wavelength=40.47 nm, x2 = 0.1827	1.36712
313.15 K, Wavelength=40.47 nm, x2 = 0.2162	1.36696
313.15 K, Wavelength=40.47 nm, x2 = 0.251	1.36648
313.15 K, Wavelength=40.47 nm, x2 = 0.3298	1.36657
313.15 K, Wavelength=40.47 nm, x2 = 0.3577	1.36568
313.15 K, Wavelength=40.47 nm, x2 = 0.4497	1.36434
313.15 K, Wavelength=40.47 nm, x2 = 0.4525	1.36476
313.15 K, Wavelength=40.47 nm, x2 = 0.522	1.36255
313.15 K, Wavelength=40.47 nm, x2 = 0.5543	1.36165
313.15 K, Wavelength=40.47 nm, x2 = 0.609	1.35929
313.15 K, Wavelength=40.47 nm, x2 = 0.6529	1.35769
313.15 K, Wavelength=40.47 nm, x2 = 0.7504	1.35369
313.15 K, Wavelength=40.47 nm, x2 = 0.804	1.34918
313.15 K, Wavelength=40.47 nm, x2 = 0.807	1.34928
313.15 K, Wavelength=40.47 nm, x2 = 0.8727	1.3456
313.15 K, Wavelength=40.47 nm, x2 = 0.9233	1.33747
313.15 K, Wavelength=40.47 nm, x2 = 0.9253	1.33918
313.15 K, Wavelength=40.47 nm, x2 = 0.9527	1.33616
313.15 K, Wavelength=40.47 nm, x2 = 0.9773	1.33271
313.15 K, Wavelength=40.47 nm, x2 = 0.989	1.33146
313.15 K, Wavelength=40.47 nm, x2 = 0.9964	1.33048
313.15 K, Wavelength=435.8 nm, x2 = 0	1.36447
313.15 K, Wavelength=435.8 nm, x2 = 0.0423	1.36444
313.15 K, Wavelength=435.8 nm, x2 = 0.0424	1.36447
313.15 K, Wavelength=435.8 nm, x2 = 0.082	1.3644
313.15 K, Wavelength=435.8 nm, x2 = 0.0822	1.36459
